From patent US12263156B2, “Use of small molecule inhibitors of the BfrB:Bfd interaction in biofilms” (priority 2020, dated 2025)

Tested on: iron stored in BfrB in P. aeruginosa PAO1 pellicle cells
Assay: Imaging of iron stored in BfrB in biofilm-embedded cells (native PAGE, Ferene S, densitometry)
Type: cell-based, Pseudomonas aeruginosa
Conditions: 24 h; KM-5-25 40 μM, KM-5-66 20 μM
Source text: Recombinant BfrB (BfrBrec) was used as a standard for the electrophoretic mobility of BfrB. The lane corresponding to untreated control was loaded with 0.5× the volume of the lanes loaded with lysates from treated pellicles to account for the ˜2-fold larger number of viable cells in the untreated pellicles. Lanes loaded with treated pellicle lysates show greater accumulation of iron in BfrB relative to untreated cells. […] (A), (C) and (D) show the average of results from 3 biological replicates, p<0.001 is denoted by *** relative to untreated.
Pellicle biofilms were grown for 48 hours as described above. The pellicles were transferred onto square (2 cm×2 cm) glass coverslips by gently contacting the pellicle with the coverslip. […] Levels of total intracellular iron were determined as reported previously:^23, 86 the cell pellets were treated with 500 μL of freshly prepared digestion reagent (0.6 N HCl, 2.25% (w/v) KMnO4 in water), thoroughly mixed by vortexing, and then incubated at 65° C. for 3.5 hours. […] The iron concentration was measured from the absorbance of the Fe^2+-Ferene S complex (ε593=34.5 mM^−1 cm^−1),^87 normalized by the viable cell counts and reported as Fe atoms per cell. […]

## O=C1NC(=O)c2c(NCCCc3cc(O)cc(Cl)c3)cccc21 [KM-5-66]
  iron in BfrB relative to untreated pellicles (Ferene S band peak areas): ~3 fold

## O=C1NC(=O)c2c(NCc3cc(Cl)ccc3O)cccc21 [KM-5-25]
  iron in BfrB relative to untreated pellicles (Ferene S band peak areas): ~3 fold
